Assay results reported in patent US20050202089A1 (SANOFI-SYNTHELABO, priority 1996, published 2005).

Assay: solubility of mizolastine in water

Substance: 2-[[1-[1-[(4-fluorophenyl)methyl]-1H-benzimidazol-2-yl]piperid-4-yl]methylamino]-pyrimidin-4-ol [mizolastine]
- solubility in water (neutral pH): 13 µg/mL
- solubility (pH 3): 11000 µg/mL
